These results are taken from ChEMBL document CHEMBL5154746, “Antibacterial Activity of Metergoline Analogues: Revisiting the Ergot Alkaloid Scaffold for Antibiotic Discovery” (2022).

In brackets after ≈: the same amount, converted by molar mass.

Experiment [1] relates to Salmonella typhimurium. In words: Antibacterial activity against Salmonella typhimurium harboring delta tolC mutant assessed as bacterial growth inhibition by Muller hinton broth based microdilution assay. It counts as functional, Salmonella enterica subsp. enterica serovar Typhimurium. The conditions noted are these: Salmonella enterica. Background: In broth dilution the organism is exposed to a series of concentrations in liquid medium.

In experiment [2] the test system is Bacillus subtilis. In words: Antibacterial activity against Bacillus subtilis 168 assessed as inhibition of bacterial growth by Muller hinton broth based microdilution assay. It counts as functional.
Experiment [3] has as its system Escherichia coli. In words: Antibacterial activity against wild type Escherichia coli MG1655 assessed as inhibition of bacterial growth by MOPS based broth microdilution assay. It counts as functional.
Experiment [4] has as its system Salmonella typhimurium. The experiment can be described thus: Antibacterial activity against wild type Salmonella typhimurium SL1344 assessed as reduction in bacterial growth by ALM based microdilution assay. The conditions noted are these: Salmonella enterica. It counts as functional, Salmonella enterica subsp. enterica serovar Typhimurium.
Experiment [5] relates to Salmonella typhimurium. The experiment can be described thus: Antibacterial activity against wild type Salmonella typhimurium SL1344 assessed as reduction in bacterial growth by Muller hinton broth based microdilution assay. It counts as functional, Salmonella enterica subsp. enterica serovar Typhimurium. Particulars: Salmonella enterica.
Experiment [6] relates to Escherichia coli. The experiment can be described thus: Antibacterial activity against wild type Escherichia coli MG1655 harboring delta tolC mutant assessed as inhibition of bacterial growth by MOPS based broth microdilution assay. It counts as functional.
In experiment [7] the test system is Escherichia coli. The experiment can be described thus: Antibacterial activity against wild type Escherichia coli MG1655 assessed as inhibition of bacterial growth by Muller hinton broth based microdilution assay. It counts as functional.
Experiment [8] concerns Staphylococcus aureus. The experiment can be described thus: Antibacterial activity against Methicillin-resistant Staphylococcus aureus USA300 assessed as inhibition of bacterial growth by Muller hinton broth based microdilution assay. It counts as functional.
Experiment [9] has as its system Escherichia coli. In words: Antibacterial activity against wild type Escherichia coli MG1655 harboring delta tolC mutant assessed as inhibition of bacterial growth by Muller hinton broth based microdilution assay. It counts as functional.

With `CN(C)CCCNC(=O)/C=C/c1ccc(C(F)(F)F)cc1`, the MIC in experiment [1] is over 200 mg/L; in [2], over 200 mg/L; in experiment [3], over 200 mg/L; in experiment [4], over 200 mg/L; in [5] it was over 200 mg/L; in experiment [6], 128 mg/L (≈ 426 µM). For the same compound, the minimum inhibitory concentration (MIC) in experiment [7] and in experiment [8] was over 200 mg/L in each case.
Take `CN1C=C2C[C@@H]3[C@H](C[C@@H](CNC(=O)C4CC4c4ccccc4)CN3C)C3C=CC=C1C23` (some centres not stated): the minimal inhibitory concentration (MIC) is 64 mg/L (≈ 154 µM) in [1]; 64 mg/L (≈ 154 µM) in experiment [2]; over 200 mg/L in experiment [3]; 200 mg/L (≈ 481 µM) in experiment [4]; over 200 mg/L in experiment [5]; 10.2 mg/L (≈ 24.6 µM) in experiment [6]. Besides, the minimal inhibitory concentration (MIC) was over 200 mg/L in experiment [7], 64 mg/L (≈ 154 µM) in [9] and 64 mg/L (≈ 154 µM) in experiment [8].

A word on the MIC: it is the lowest concentration found to suppress growth.
